US9808434B2, “Compound for treating cancer and diabetes” (CITY OF HOPE, priority 2011, dated 2017)
“Also recorded” adds a separate entry of the source.

Key:
3T3-L1 cells = test: Intracellular triglyceride contents, AdipoRed Assay; type: cell-based, mouse; conditions: 7 days in DM + compound
Procedure: Intracellular triglyceride contents were measured using AdipoRed Assay™ and the results were shown in relative fluorescence units (RFU) in FIG. 5.
3T3-L1 preadipocytes cells were treated with differentiating media (DM) with COH-SR4 (1 μM, 3 μM, or 5 μM) or without for 7 days. […] As used in FIG. 9C, U=undifferentiated, D=differentiated with cocktail media.

Hs600T = test: MTT assay, Hs600T; type: cell-based; conditions: Homo sapiens
Procedure: Cell density measurements were performed using a hemocytometer to count reproductive cells resistant to staining with trypan blue. Approximately 20,000 cells were plated into each well of 96-well flat-bottomed micro-titer plates. After 12 h or 24 h incubation at 37° C., medium containing either COH-SR4 (ranging 0-200 μM) or elesclomol (ranging 0-20 μM) were added to the cells. After 24 h, 48 h or 96 h incubation, 20 μL of 5 mg/mL MTT were introduced to each well and incubated for 2 h. The plates were centrifuged and medium was decanted. Cells were subsequently dissolved in 100 μl DMSO with gentle shaking for 2 h at room temperature, followed by measurement of OD570 (91).
Cells of highly aggressive mouse melanoma cell line B16-F0 or human melanoma cell line Hs600T were incubated with various doses of COH-SR4 (1, 2.5, 5, 10, 25, 50, or 100 μM). The cell viabilities after treatment of 48 hours and 96 hours were measured and summarized in FIGS. 54A and 55A, respectively. […] Data were presented as mean±Standard Deviation from two separate determinations with eight replicate each (n=16).

HAVSMC = test: Colony formation assay, HAVSMC; type: cell-based, human; conditions: for colony forming potential: vs untreated control
Procedure: (§1) Cell survival was evaluated using a standard colony-forming assay. In total, 1×10^5 cells/mL were incubated with COH-SR4 (1.5 μM or 5 μM) or elesclomol (5 μM) for 24 h, and aliquots of 50 or 100 μL were added to 60 mm size petri dishes, containing 4 mL culture medium. After 7 or 10 days, adherent colonies were fixed, stained with 0.5% methylene blue for 30 min and colonies were counted using the Innotech Alpha Imager HP (91).

SK-Mel-5 = test: Colony formation assay, SK-Mel-5; type: cell-based, human; conditions: 5 μM
Procedure: as §1

NHDF = test: Colony formation assay, NHDF; type: cell-based, human; conditions: FIG. 67B, 5 μM, vs untreated control
Procedure: as §1

A2058 cells = test: Annexin V / propidium iodide flow cytometry, A2058; type: cell-based, human
Procedure: Apoptosis of cells were measured based on loss of membrane integrity using Annexin V-FITC Apoptosis Detection Kit as described by the supplier (BD Biosciences Pharmingen, San Diego, Calif.), in which the early- and late-death cells were stained with Annexin V-FITC and propidium iodide. Cells were analyzed using a CyAn ADP cytometer (Beckman Coulter Inc) to quantify fluorescence. Apoptotic cells were defined as Annexin V-FITC positive.

[1] = system: isolated mouse liver mitochondria; test: Oxygen consumption rate in isolated liver mitochondria; conditions: increasing concentrations
Procedure: Mitochondria were isolated from the livers of 10 week old male C57BL/6 mice. Mice were euthanized by CO2 inhalation followed by cervical dislocation. Livers were removed, minced with scissors, and immediately placed in ˜10 volumes of ice-cold mitochondria isolation medium (250 mM sucrose, 10 mM Tris-HCl, 1 mM EGTA, 1% fatty acid/endotoxin-free BSA, pH 7.4). The presence of BSA in the medium allowed the endogenous free fatty acids to be chelated from the homogenate suspension. The tissues were homogenized using 25-30 strokes in Potter-Elvehjem tissue grinder. Following centrifugation at 800×g for 10 min at 4° C., the fats/lipids were carefully aspirated, and the remaining supernatant was filtered through sterile 0.40 micron nylon mesh membrane and centrifuged at 8,000×g for 10 min at 4° C. […] The mitochondrial protein concentration was determined by the DC Protein Assay kit (Bio-Rad, Hercules, Calif.) with BSA as a standard. […]
Isolated mouse liver mitochondria (2 μg/well or 5 μg/well) were seeded on Seahorse 96-well plate, and respiration (OCR) was measured on mitochondria respiring either on pyruvate (10 mM) and malate (2 mM) or succinate (10 mM) and rotenone (2 μM) using a Seahorse 96 Flux Analyzers according to Rogers et al (90).

GST = GST activity towards CDNB in lung cancer cell supernatants; type: biochemical, human; conditions: H1417, H1618, H520, H358 supernatants; 1 mM GSH and CDNB
Procedure: In the context of the elevation of GSTs in lung cancer, the impact of COH-SR4 on the catalytic activity of GSTs towards 1-chloro 2,4-dinitro benzene (CDNB), a model substrate used for GST activity was analyzed. GST activity towards 1-chloro 2,4-dinitro benzene (CDNB) and its inhibition by COH-SR4 was performed in 28000×g crude supernatant prepared from H1417, H1618, H520 and H358 cells. The inhibitory effect of COH-SR4 on GST was studied at a fixed concentration of GSH and CDNB (1 mM each) and varying concentrations of inhibitor. The enzymes were pre-incubated with the inhibitor for 5 min at 37° C. prior to the addition of the substrates. The experiment was repeated three times and similar results were obtained. […] Human liver purified GST was used as a control (FIG. 79B, inset). GSTs are a class of phase II detoxifying enzymes, which regulate detoxification of administered chemotherapy drugs for further efflux out of cells by transport proteins. The GST inhibition leads to accumulation of toxic end-products of lipid peroxidation due to decreased efflux of GS-HNE which also reinforces the GST inhibition by feedback inhibition. The over-expression of GSTs is a common phenomenon associated with malignant progression of many cancers including lung cancer, melanomas skin and prostate cancers. […]

hepatic genes = test: Liver gene expression of HFD obese and db/db mice; type: in vivo, mouse; conditions: RT-PCR and RNA-seq
Text: Total RNA was isolated from livers of lean, vehicle or COH-SR4-treated HFD mice using standard protocols and subjected to quantitative RT-PCR using primers for key genes associated with lipid and fatty acid synthesis (Acaca, Pparg, Acly, Scd1, Srebf1, Hmgcr, Cpt1, Fasn) and gluconeogenesis (G6pc, Pck1). Livers of db/+ and db/db mice treated with vehicle or COH-SR4 were used for RNA-seq analysis. RNA isolation, purification, sequencing, library preparation and read alignments were done at the City of Hope Functional Genomics Core facility. Differential gene expression was identified from standard Partek workflow (Partek Genomics Suite v6.6, Partek, Inc) using ANOVA, with step-up FDR multiple testing correction p-value of <0.05 and 1.5× fold change. […] Databases utilized included GOTERM_BP_FAT (biological process) and Kyoto Encyclopedia of Genes and Genomes (KEGG_PATHWAY).
Total RNA was isolated from liver of control animals and HFD obese or db/db mice treated with vehicle or COH-SR4 (as described in Example 35). Relative mRNA expression (mean±SEM) of lipogenic and gluconeogenic genes were determined using real time RT-PCR and quantified using the comparative Ct method (FIG. 86A, ^#P<0.05, ^##P<0.01 vs. HFD). […] Key hepatic genes associated with lipid/fatty acid synthesis and glucose and amino acid metabolism regulated by COH-SR4 in db/db mice are shown in FIG. 86D.

Compound: O=C(Nc1cc(Cl)cc(Cl)c1)Nc1cc(Cl)cc(Cl)c1 [COH-SR4, 1,3-bis(3,5-dichlorophenyl) urea]
- intracellular triglyceride contents (AdipoRed Assay) (3T3-L1 cells): decreased intracellular triglyceride contents; also recorded: dose-dependently reduced
- IC50 (Hs600T; 48 h): ~10 µM
- IC50 (Hs600T; 96 h): ~6 µM
- colony formation in normal cells (HAVSMC; 1.5 μM): did not result in significant inhibition of colony formation
- colony forming potential (HAVSMC; Example 18, FIG. 65B): 96±4%
- colony forming potential (HAVSMC; FIG. 67B, 5 μM): 95±4%
- colony formation (SK-Mel-5): 22±8%
- colony forming potential (NHDF): 97±3%
- apoptosis (annexin V / propidium iodide) (A2058 cells): caused apoptosis in A2058 cells in a dose-dependent manner
- OCR of mitochondria respiring on pyruvate and malate or succinate-rotenone [1]: dose-dependently increased OCR of mitochondria
- total GST activity towards CDNB (GST): inhibited the total GST activity to a significant extent
- hepatic pathways affected (hepatic genes): downregulated hepatic lipogenesis and glucose metabolic pathways, while upregulating amino acid metabolism
